Earlier results as cited in article PMC9276671, “A first-in-human Phase I dose-escalation trial of the novel therapeutic peptide, ALM201, demonstrates a favourable safety profile in unselected patients with ovarian cancer and other advanced solid tumours” (British Journal of Cancer, 2022).

Tests used:
tubulin = tested on: tubulin; design: method as in Investigator brochure (IB); conditions: ref Investigator brochure (IB), cited from earlier work; for IC50: protocol Table 2, read-out: Tubulin polymerisation IC50; for Tubulin polymerisation IC50: protocol Table 3
cell viability = conditions: protocol Table 2; ref Investigator brochure (IB); cited from earlier work
Description: (§1) ALM201 also had no effect on cytok ...

cell cycle = conditions: protocol Table 2 (IC50 (nM)); ref Investigator brochure (IB); cited from earlier work
Description: as §1

[1] = tested on: HMEC-1, a human vascular endothelial cell-line; conditions: protocol Table 3; ref Investigator brochure (IB); read-out: Wound scrape IC50; cited from earlier work
Description: page 37: Almac Discovery Confidential There are five main histological subtypes of ovarian cancer differing in tissue of origin, stage of presentation, sensitivity to chemotherapy, survival and driver genetic mutations. The most aggressive of these subtypes are the high grade serous tumours. […] ALM201 also had no effect on cytok ...

HMEC-1 = conditions: protocol Table 3; ref Investigator brochure (IB); read-out: Tube formation IC50; cited from earlier work
Description: as §1

proliferation = conditions: protocol Table 3; ref Investigator brochure (IB); cited from earlier work
Description: as §1

Row | Molecule | IC50 (tubulin) | IC50 (cell viability) | Cell cycle arrest (cell cycle) | IC50 [1] | Tubulin polymerisation IC50 (tubulin) | IC50 (HMEC-1) | IC50 (proliferation)
1 | COc1ccc(C[C@@H](O)c2cc(OC)c(OC)c(OC)c2)cc1O [Combretastatin] | 360 nM | 0.2 nM | Yes | – | – | – | –
2 | CCN(CC)CCNC(=O)c1c(C)[nH]c(/C=C2\C(=O)Nc3ccc(F)cc32)c1C [Sunitinib] | – | – | – | 8.9 nM | No effect | 4.4 nM | […]
3 | CC[C@]1(O)C[C@@H]2CN(CCc3c([nH]c4ccccc34)[C@@](C(=O)OC)(c3cc4c(cc3OC)N(C)[C@H]3[C@@](O)(C(=O)OC)[C@H](OC(C)=O)[C@]5(CC)C=CCN6CC[C@]43[C@@H]65)C2)C1 [Vinblastine] | […] | 0.02 nM | Yes | – | – | – | –
4 | Bevacizumab | – | – | – | 59 nM | No effect | 2400 nM | 158 nM
